Reference: the supplement of paper PMC11451515

Tested on: NOMO1
Experiment: cell viability relative to DMSO control; higher = less cytotoxic
Settings: 48 h
Outline: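 Library compounds in DMSO were pin-dosed in an 11-point threefold series (47 μM to 0.79 nM) onto leukemia cells in 1536-well plates (5 μl). Plates held 500 cells/well of NOMO1 or SEM or 1000 cells/well of P12-Ichikawa, each adapted for at least four passages in each medium. Luminescence was read with CellTiter-Glo One after 48 h at 37°C. Viability means the per-plate percentage relative to DMSO wells, using cell-free wells as background.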

[1] = HPLM + 10% dialyzed FBS, 0.000781 µM
[2] = HPLM + 10% dialyzed FBS, 0.00234 µM
[3] = HPLM + 10% dialyzed FBS, 0.00702 µM
[4] = HPLM + 10% dialyzed FBS, 0.0211 µM
[5] = HPLM + 10% dialyzed FBS, 0.0632 µM
[6] = HPLM + 10% dialyzed FBS, 0.19 µM
[7] = HPLM + 10% dialyzed FBS, 0.569 µM
[8] = HPLM + 10% dialyzed FBS, 1.71 µM
[9] = HPLM + 10% dialyzed FBS, 5.12 µM
[10] = HPLM + 10% dialyzed FBS, 15.4 µM
[11] = HPLM + 10% dialyzed FBS, 46.1 µM
[12] = RPMI 5 mM glucose + 10% FBS, 0.000781 µM
[13] = RPMI 5 mM glucose + 10% FBS, 0.00234 µM
[14] = RPMI 5 mM glucose + 10% FBS, 0.00702 µM
[15] = RPMI 5 mM glucose + 10% FBS, 0.0211 µM
[16] = RPMI 5 mM glucose + 10% FBS, 0.0632 µM
[17] = RPMI 5 mM glucose + 10% FBS, 0.19 µM
[18] = RPMI 5 mM glucose + 10% FBS, 0.569 µM
[19] = RPMI 5 mM glucose + 10% FBS, 1.71 µM
[20] = RPMI 5 mM glucose + 10% FBS, 5.12 µM
[21] = RPMI 5 mM glucose + 10% FBS, 15.4 µM
[22] = RPMI 5 mM glucose + 10% FBS, 46.1 µM
[23] = RPMI 5 mM glucose + 10% dialyzed FBS, 0.000781 µM
[24] = RPMI 5 mM glucose + 10% dialyzed FBS, 0.00234 µM
[25] = RPMI 5 mM glucose + 10% dialyzed FBS, 0.00702 µM
[26] = RPMI 5 mM glucose + 10% dialyzed FBS, 0.0211 µM
[27] = RPMI 5 mM glucose + 10% dialyzed FBS, 0.0632 µM
[28] = RPMI 5 mM glucose + 10% dialyzed FBS, 0.19 µM
[29] = RPMI 5 mM glucose + 10% dialyzed FBS, 0.569 µM
[30] = RPMI 5 mM glucose + 10% dialyzed FBS, 1.71 µM
[31] = RPMI 5 mM glucose + 10% dialyzed FBS, 5.12 µM
[32] = RPMI 5 mM glucose + 10% dialyzed FBS, 15.4 µM
[33] = RPMI 5 mM glucose + 10% dialyzed FBS, 46.1 µM

Row | SMILES | cell viability [1] | cell viability [2] | cell viability [3] | cell viability [4] | cell viability [5] | cell viability [6] | cell viability [7] | cell viability [8] | cell viability [9] | cell viability [10] | cell viability [11] | cell viability [12] | cell viability [13] | cell viability [14] | cell viability [15] | cell viability [16] | cell viability [17] | cell viability [18] | cell viability [19] | cell viability [20] | cell viability [21] | cell viability [22] | cell viability [23] | cell viability [24] | cell viability [25] | cell viability [26] | cell viability [27] | cell viability [28] | cell viability [29] | cell viability [30] | cell viability [31] | cell viability [32] | cell viability [33]
1 | CN(C)c1ccccc1CN1CCCN(Cc2ccccc2N(C)C)C1c1ccncc1 | 93.7% | 103% | 91.6% | 29.8% | 113% | 115% | 108% | 110% | 99.9% | 95.7% | 65.7% | 86.4% | 82.7% | 89.2% | 18.6% | 89.4% | 88% | 91.1% | 81.3% | 83.5% | 89.7% | 74.5% | 77.3% | 88.7% | 90.6% | 33.3% | 93% | 99.6% | 93.7% | 97.7% | 95.4% | 95% | 65%
2 | COC(=O)Nc1nc2cc(Sc3ccccc3)ccc2[nH]1 |  |  |  |  |  |  |  |  |  |  |  | 114% | 122% | 124% | 113% | 120% | 107% | 115% | 111% | 22.8% | 42.9% | 36.8% | 122% | 111% | 122% | 115% | 140% | 119% | 119% | 115% | 32.6% | 35.1% | 29.7%
3 | Cc1ccccc1C(C(=O)NC1CCCC1)N(C(=O)Cn1cnc2ccccc21)c1cccc(F)c1 (stereo not given) |  |  |  |  |  |  |  |  |  |  |  | 118% | 114% | 127% | 105% | 125% | 107% | 113% | 121% | 108% | 110% | 99.8% |  |  |  |  |  |  |  |  |  |  | 
4 | N[S+](=O)([O-])c1cc2c(cc1Cl)NCN[S+]2(=O)[O-] | 111% | 97.3% | 105% | 109% | 122% | 111% | 122% | 121% | 103% | 105% | 102% | 108% | 109% | 114% | 109% | 101% | 113% | 119% | 117% | 117% | 112% | 98.8% | 109% | 101% | 112% | 106% | 122% | 136% | 117% | 124% | 111% | 112% | 101%
5 | O=C(/C=C/c1cccnc1)NCCCCC1CCN(C(=O)c2ccccc2)CC1 | 102% | 59.8% | 33.1% | 17.4% | 13.1% | 7.89% | 6.3% | 7.27% | 9.47% | 10.6% | 6.73% | 105% | 110% | 47% | 28% | 12.9% | 9.19% | 8.33% | 8.21% | 8.16% | 8.07% | 7.6% | 110% | 75.6% | 39% | 30.7% | 16.8% | 9.73% | 7.83% | 8.77% | 7.77% | 8.34% | 6.8%
6 | CN1C(=O)\C(=C/C2=C1N=C(NC3CCOCC3)N=C2)OC4=C(F)C=C(F)C=C4 | 105% | 107% | 105% | 101% | 119% | 100% | 91% | 96.4% | 58.2% | 89.2% | 16.4% | 95.4% | 83.2% | 88.4% | 90.6% | 94.1% | 87.2% | 87.2% | 95.2% | 79.2% | 84% | 23.3% | 86.7% | 97.1% | 104% | 89.2% | 83.5% | 87.1% | 95.5% | 91.4% | 76.7% | 86.3% | 26.4%
7 | O=C(Nc1cccc2c(=O)cc(-c3nnn[nH]3)oc12)c1ccc(OCCCCc2ccccc2)cc1 | 75.4% | 80.8% | 104% | 107% | 100% | 110% | 94.1% | 102% | 95% | 83.9% | 8.37% | 73.4% | 81.2% | 85.2% | 84.6% | 84.4% | 93.7% | 90.1% | 88.6% | 79% | 81.5% | 10.5% | 82.8% | 95.1% | 91.7% | 97.5% | 94.1% | 88.9% | 94.4% | 83.3% | 80.3% | 73.7% | 22.8%
8 | O=C(N[C@H]1CN2CCC1CC2)c1ccc(Cl)cc1 | 91.3% | 106% | 110% | 138% | 123% | 127% | 118% | 107% | 127% | 103% | 68.1% | 97.8% | 97.1% | 103% | 101% | 114% | 103% | 103% | 94.8% | 92.2% | 102% | 98.3% | 107% | 101% | 97.2% | 91.4% | 108% | 109% | 103% | 92.2% | 103% | 106% | 109%
9 | OC[C@H]1O[C@H](C[C@@H]1O)N2\C=C(\I)C(=O)NC2=O | 107% | 118% | 105% | 126% | 116% | 113% | 114% | 125% | 105% | 91.3% | 79.2% | 112% | 120% | 110% | 113% | 120% | 116% | 127% | 119% | 129% | 115% | 88.6% | 103% | 118% | 114% | 117% | 132% | 117% | 133% | 104% | 97.1% | 98.5% | 86.2%
10 | N[C@@H](Cc1cc(I)c(Oc2cc(I)c(O)c(I)c2)c(I)c1)C(=O)O | 119% | 109% | 105% | 103% | 111% | 109% | 125% | 94.5% | 112% | 104% | 97.4% | 92.9% | 105% | 107% | 100% | 101% | 97% | 108% | 105% | 93.6% | 112% | 84.8% | 109% | 116% | 113% | 113% | 94.1% | 95.5% | 96.9% | 98.9% | 94% | 96.8% | 92.6%
11 | CC(=O)O[C@@]12CO[C@@H]1C[C@H](O)[C@]3(C)[C@@H]2[C@H](OC(=O)C4=CC=CC=C4)[C@]5(O)C[C@H](O)/C(=C(/[C@@H](O)C3=O)C5(C)C)C | 109% | 133% | 123% | 122% | 130% | 131% | 114% | 121% | 117% | 36.1% | 29.1% | 98.1% | 112% | 111% | 116% | 118% | 108% | 105% | 113% | 109% | 51.8% | 13.3% | 89.8% | 92.8% | 106% | 121% | 113% | 114% | 106% | 111% | 115% | 45.1% | 19.3%
12 | CC(=O)OCC(CCn1cnc2cnc(N)nc21)COC(C)=O | 80% | 105% | 89.9% | 98.4% | 102% | 113% | 102% | 120% | 112% | 103% | 101% | 91.7% | 101% | 92.8% | 93.1% | 93.9% | 106% | 98.9% | 108% | 104% | 94.2% | 92.7% | 92.4% | 91.3% | 104% | 93% | 89.9% | 112% | 100% | 101% | 99.9% | 108% | 90.3%
13 | Cc1ccc(Nc2nccc(N(C)c3ccc4c(C)n(C)nc4c3)n2)cc1[S+](N)(=O)[O-] | 107% | 118% | 102% | 112% | 121% | 129% | 126% | 112% | 132% | 112% | 50.9% | 93.9% | 101% | 92.1% | 103% | 99.5% | 101% | 107% | 114% | 105% | 100% | 50.3% | 95.8% | 92.1% | 102% | 85.4% | 104% | 112% | 105% | 123% | 110% | 97.2% | 71.1%
14 | O=C(c1ccc(C(=O)N2CCC(N3CCCC3)CC2)c(Nc2ccccc2)c1)N1CCC(N2CCCC2)CC1 | 98.6% | 110% | 104% | 103% | 105% | 111% | 112% | 104% | 102% | 113% | 112% | 85.6% | 98.2% | 90.3% | 95% | 106% | 91.7% | 82.3% | 94.3% | 99.7% | 92.6% | 107% | 101% | 110% | 111% | 98.6% | 98.2% | 104% | 101% | 109% | 96.7% | 96.3% | 97.3%
15 | COc1ccccc1OCC(O)CN1CCN(CC(=O)Nc2c(C)cccc2C)CC1 (stereo not given) | 109% | 117% | 142% | 142% | 129% | 157% | 168% | 154% | 138% | 138% | 137% | 115% | 131% | 125% | 167% | 139% | 155% | 141% | 136% | 144% | 139% | 141% |  |  |  |  |  |  |  |  |  |  | 
16 | N[C@@H](Cc1ccc(N(CCCl)CCCl)cc1)C(=O)O |  |  |  |  |  |  |  |  |  |  |  | 124% | 130% | 123% | 142% | 150% | 140% | 137% | 137% | 124% | 44.8% | 23.8% |  |  |  |  |  |  |  |  |  |  | 
17 | CCOC(=O)c1c(/C(C#N)=C\N)c2ccc(Cl)c(Cl)c2n1C | 89.9% | 95.7% | 94.3% | 95% | 72.6% | 101% | 91.1% | 87.2% | 94% | 95.8% | 103% | 81.9% | 80.7% | 82.5% | 92% | 80.4% | 77.3% | 79.7% | 88% | 80.8% | 78.6% | 95.3% | 90.7% | 90.1% | 87.7% | 91.4% | 79.2% | 77% | 86% | 86.8% | 87.2% | 77.6% | 101%
